We go through four compounds from patent US20190045784A1 (priority 2016, published 2019).

Like-named read-outs stand apart in the source and are kept apart here.

Holding throughout (assay type): cell-based
What all share (conditions): 7 days after inoculation

The subject of experiment [1] is Phytophthora infestans.
The test system of experiment [2] is Botrytis cinerea. The experiment in a line: Activity against the grey mold Botrytis cinerea in the microtiter plate test (Botrci).
Experiment [3] deals with Alternaria solani. The experiment in a line: Activity against early blight caused by Alternaria solani (Alteso), microtiter test.
The test system of experiment [4] is Septoria tritici. The experiment in a line: Activity against leaf blotch on wheat caused by Septoria tritici (Septtr), microtiter test.

For the compound `Cn1cc(C(=O)Nc2ccccc2-c2cc(F)c(F)c(F)c2)c(C(F)F)n1` [Fluxapyroxad, fluxapyroxad], the Observed efficacy in experiment [1] (0.016 ppm) was 2%; in experiment [1] (0.063 ppm), 18%; in experiment [2] (0.016 ppm) it was 0%; in experiment [3] (0.00025 ppm) it was 7%; in experiment [3] (0.004 ppm), 31%; in experiment [3] (0.016 ppm) it was 69%. Further, the Observed efficacy was 1% in experiment [4] (0.000063 ppm), 7% in experiment [4] (0.001 ppm), 9% in experiment [4] (0.004 ppm) and 17% in experiment [4] (0.016 ppm).
With `Cc1ccc(COc2ncc(F)c(N)n2)cc1` [No. I-5, 5-fluoro-2-(p-tolylmethoxy)pyrimidin-4-amine], the Observed efficacy in experiment [1] (16 ppm) stood at 14%; in experiment [2] (16 ppm), 24%.
Consider `Cn1c(=O)c2sc3c(=O)n(C)c(=O)c3sc2c1=O` [No. I-2, 2,6-dimethyl-1H,5H-[1,4]dithiino[2,3-c:5,6-c′]dipyrrole-1,3,5,7(2H,6H)-tetraone], for which the Observed efficacy in experiment [1] (0.25 ppm) is listed as 0%; in experiment [1] (1 ppm), 28%; in experiment [3] (0.25 ppm), 14%; in experiment [4] (0.063 ppm) it was 35%.
Compound `Nc1nc(OCc2ccc(F)cc2)ncc1F` [No. I-4, 5-fluoro-2-(4-fluorophenylmethoxy)pyrimidin-4 amine] gave an Observed efficacy in experiment [3] (1 ppm) of 0%.
